# Experimental data from the Deep4Chem optical property database.
# Values joined by “and” are separate entries in the source; they are usually repeats but may differ in a detail not shown here. Equal entries are not always repeated.
# Assay: photoluminescence quantum yield (fraction); solvent given as SMILES
compound,measurement,setting,value
Cn1c2nc(=O)[nH]c(=O)c-2nc2ccccc21,photoluminescence quantum yield,in CC1CCCO1,0.3
CCCCCCOc1cc(C=O)c(OCCCCCC)cc1C=O,photoluminescence quantum yield,in ClCCl,0.208
C[Si](C)(C)C#Cc1ccc(C#C[Si](C)(C)C)c2ccccc12,photoluminescence quantum yield,in C1CCCCC1,0.85
CCCCCCn1c2ccccc2c2cc(/C=C/c3cc(=O)oc4cc(C)ccc34)ccc21,photoluminescence quantum yield,in ClC(Cl)Cl,0.38
CCCCC(CC)CN1C(=O)c2cc(Oc3ccc(OC)cc3)c3c4c(Cl)cc5c6c(cc(Cl)c(c7c(Oc8ccc(OC)cc8)cc(c2c37)C1=O)c64)C(=O)N(c1c(C(C)C)cccc1C(C)C)C5=O (configuration not stated),photoluminescence quantum yield,in Cc1ccccc1,0.13
Cc1cc(C)c(B(c2ccccc2N(c2ccccc2)c2ccccc2)c2c(C)cc(C)cc2C)c(C)c1,photoluminescence quantum yield,in Cc1ccccc1,0.73
COc1ccc(-c2cc3c(ccc4sc(/C=C/c5cccs5)cc43)s2)cc1,photoluminescence quantum yield,in ClCCl,0.28
Fc1ccc(-c2cc3c4c(c2)CCc2cc(-c5ccc(F)cc5)cc(c2-4)CC3)cc1,photoluminescence quantum yield,in C1CCCCC1,0.48
same,photoluminescence quantum yield,in C1CCOC1,0.81
same,photoluminescence quantum yield,in CC#N,0.19
same,photoluminescence quantum yield,in CCCCCC,0.55
same,photoluminescence quantum yield,in CCO,0.18
same,photoluminescence quantum yield,in CN(C)C=O,0.56
same,photoluminescence quantum yield,in CO,0.24
same,photoluminescence quantum yield,in Cc1ccccc1,1
same,photoluminescence quantum yield,in ClC(Cl)Cl,0.55
same,photoluminescence quantum yield,in ClCCl,1
COC(=O)C(NC(=O)OC(C)(C)C)c1ccc2oc(-c3ccc(F)cc3)nc2c1 (configuration not stated),photoluminescence quantum yield,in CC1CCCCC1,0.49
same,photoluminescence quantum yield,in CC#N,0.46
same,photoluminescence quantum yield,in CO,0.48
C(C#Cc1ccc2ccc3cccc4ccc1c2c34)#Cc1cccc2ccccc12,photoluminescence quantum yield,in C1CCCCC1,0.84
same,photoluminescence quantum yield,in CC#N,0.73
same,photoluminescence quantum yield,in CO,0.55
same,photoluminescence quantum yield,in ClCCl,0.64
[C-]#[N+]c1ccc(-c2ccc(NC)cc2)cc1,photoluminescence quantum yield,in C1CCCCC1,0.74
same,photoluminescence quantum yield,in C1CCOC1,0.74
same,photoluminescence quantum yield,in C1COCCO1,0.77
same,photoluminescence quantum yield,in CC#N,0.88
same,photoluminescence quantum yield,in CC(C)=O,0.55
same,photoluminescence quantum yield,in CCCCCC,0.49
same,photoluminescence quantum yield,in CCOC(C)=O,0.63
same,photoluminescence quantum yield,in CN(C)C=O,0.49
same,photoluminescence quantum yield,in CO,0.65
same,photoluminescence quantum yield,in CS(C)=O,0.72
same,photoluminescence quantum yield,in Cc1ccccc1,0.59
same,photoluminescence quantum yield,in ClC(Cl)Cl,0.55
same,photoluminescence quantum yield,in ClCCl,0.85
same,photoluminescence quantum yield,in O,0.0087
same,photoluminescence quantum yield,in c1ccncc1,0.03
CC1(C)C(/C=C/C2=C(Cl)C(=C/C=C3/N(CCCCCC(=O)O)c4ccccc4C3(C)C)/CCC2)=[N+](CCCCCC(=O)O)c2ccccc21,photoluminescence quantum yield,in CCO,0.119
Brc1ccc2cc3c4ccccc4nc(-c4ccco4)c3n2c1,photoluminescence quantum yield,in CS(C)=O,0.03
CCN(CC)c1ccc2cc(-c3nc4ccccc4n3-c3ccccc3)c(=O)oc2c1,photoluminescence quantum yield,in ClCCl,0.94
Cc1cc(C)c(C2=C3C=c4c(c5ccc(C(C)(C)C)cc5c5cc(C(C)(C)C)ccc45)=[N+]3[B-](F)(F)n3c2cc2c4ccc(C(C)(C)C)cc4c4cc(C(C)(C)C)ccc4c23)c(C)c1,photoluminescence quantum yield,in C1CCCCC1,0.3
same,photoluminescence quantum yield,in C1CCOC1,0.25
same,photoluminescence quantum yield,in CC#N,0.24
same,photoluminescence quantum yield,in Cc1ccccc1,0.29
same,photoluminescence quantum yield,in ClCCl,0.25
CCOC(=O)c1cc(C(=O)OCC)c2cc(NC)ccc2n1,photoluminescence quantum yield,in CCO,0.47
C(#Cc1ncc(-c2ccccc2)o1)c1ccco1,photoluminescence quantum yield,in ClCCl,0
COc1ccc(C#Cc2ccccc2C#Cc2ccc(OC)cc2)cc1,photoluminescence quantum yield,in CC#N,0.83
CC(C)[Si](C#Cc1c2ccccc2c(C#C[Si](C(C)C)(C(C)C)C(C)C)c2nc3c(ccc4ccccc43)nc12)(C(C)C)C(C)C,photoluminescence quantum yield,in CCCCCC,0.51
Cc1ccc2nc(-c3cccc4nc(C)[nH]c(=O)c34)[nH]c2c1,photoluminescence quantum yield,in CN(C)C=O,0.036
Cc1ccc2ccc3cccc4ccc1c2c34,photoluminescence quantum yield,in CCCCCC,0.34
same,photoluminescence quantum yield,in CO,0.28
same,photoluminescence quantum yield,in ClCCl,0.45
FC(F)(F)c1ccc(/C=C/c2nc3c(ccc4ccccc43)s2)cc1,photoluminescence quantum yield,in C1CCCCC1,0.14
same,photoluminescence quantum yield,in CC#N,0.14
CCC1=C(C)C2=Cc3cscc3B(O)N2C1=O,photoluminescence quantum yield,in CC#N,0.97
same,photoluminescence quantum yield,in CCCCCC,0.18
same,photoluminescence quantum yield,in CO,0.35
same,photoluminescence quantum yield,in CS(C)=O,0.87
same,photoluminescence quantum yield,in ClC(Cl)Cl,0.2
c1ccc([B-]23Oc4ccccc4-c4c5[n+]6c(c([n+]42)-c2ccccc2O3)-c2ccccc2O[B-]6(c2ccccc2)Oc2ccccc2-5)cc1,photoluminescence quantum yield,in ClCCl,0.2
O=Cc1ccc(C2=Cc3ccccc3P2(=O)c2ccccc2)cc1 (configuration not stated),photoluminescence quantum yield,in ClCCl,0.056
Fc1ccc(-c2c3ccccc3nc3cc4ccccc4cc23)cc1,photoluminescence quantum yield,in ClCCl,0.48
O=C([O-])c1ccc(C(=O)[O-])c(C2=c3cc4c5c(c3Oc3c2cc2c6c3CCCN6CCC2)CCC[N+]=5CCC4)c1,photoluminescence quantum yield,in CCO,0.83
same,photoluminescence quantum yield,in O,0.64
N#Cc1c(-n2c3ccccc3c3ccccc32)c(C#N)c(-n2c3ccccc3c3ccccc32)c(-n2c3ccccc3c3ccccc32)c1-n1c2ccccc2c2ccccc21,photoluminescence quantum yield,in Cc1ccccc1,0.938 and 0.88
same,photoluminescence quantum yield,in c1ccc2c(c1)c1ccccc1n2-c1ccc(-c2ccc(-n3c4ccccc4c4ccccc43)cc2)cc1,0.83
Cc1ccc(C#Cc2ccc3ccc4cccc5ccc2c3c45)cc1,photoluminescence quantum yield,in CCCCCC,0.29
same,photoluminescence quantum yield,in CCO,0.3
same,photoluminescence quantum yield,in CCOC(C)=O,0.29
same,photoluminescence quantum yield,in ClCCl,0.38
C(S/C=C/c1ccc(-c2ccc(/C=C/SC=C3CCCCCC3)cc2)cc1)=C1CCCCCC1,photoluminescence quantum yield,in ClCCl,0.176
Cc1cc(=O)oc2cc3cc(O)ccc3cc12,photoluminescence quantum yield,in CC#N,0.02
same,photoluminescence quantum yield,in CCO,0.35
NNC(=O)NNN1C(=O)c2cc(S(=O)(=O)[O-])cc3c(N)c(S(=O)(=O)[O-])cc(c23)C1=O,photoluminescence quantum yield,in C1COCCO1,0.06
same,photoluminescence quantum yield,in CC#N,0.49
same,photoluminescence quantum yield,in CC(C)=O,0.29
same,photoluminescence quantum yield,in CC(C)O,0.62
same,photoluminescence quantum yield,in CCCCCCCCO,0.75
same,photoluminescence quantum yield,in CCO,0.54
same,photoluminescence quantum yield,in CCOC(C)=O,0.03
same,photoluminescence quantum yield,in CO,0.25
same,photoluminescence quantum yield,in CS(C)=O,0.59
same,photoluminescence quantum yield,in O,0.21
same,photoluminescence quantum yield,in OCCO,0.5
same,photoluminescence quantum yield,in c1ccncc1,0.26
CCCC1(CCC)c2cc(C=C(C#Cc3ccccc3)C#Cc3ccccc3)ccc2-c2ccc(C=C(C#Cc3ccccc3)C#Cc3ccccc3)cc21,photoluminescence quantum yield,in ClC(Cl)Cl,0.31
N#CC=C(c1ccc(N2c3ccccc3Oc3ccccc32)cc1)c1ccc(N2c3ccccc3Oc3ccccc32)cc1,photoluminescence quantum yield,in Cc1ccccc1,0.371
CCc1ccc(C2=[N+]3C(=Cc4c5ccc(OC)cc5c(-c5ccc(CC)s5)n4[B-]3(F)F)c3ccc(OC)cc32)s1,photoluminescence quantum yield,in ClCCl,0.2
OCc1ccc2c3cccc4cccc(c5cccc1c52)c43,photoluminescence quantum yield,in CCO,0.95
CC1CCC(=CS/C=C/c2ccc(/C=C/SC=C3CCC(C)CC3)cc2)CC1 (configuration not stated),photoluminescence quantum yield,in ClCCl,0.027
COc1ccc(-c2cc(-c3ccc(C(F)(F)F)cc3)nn2C)cc1,photoluminescence quantum yield,in ClCCl,0.2
C(#Cc1cccs1)C(C#Cc1cccs1)=Cc1ccc(C=C(C#Cc2cccs2)C#Cc2cccs2)s1,photoluminescence quantum yield,in ClC(Cl)Cl,0.03 and 0.07
CCCCCCN1C(=O)c2cccc3c(-c4ccc(-c5cc(-c6ccc(C)cc6)nn5-c5ccccc5)s4)ccc(c23)C1=O,photoluminescence quantum yield,in ClCCl,0.18
CCCCCCCCCCOc1cc2cc(C#Cc3ccc(/C=C(\C#N)C(=O)O)cc3)c(=O)oc2cc1OCCCCCCCCCC,photoluminescence quantum yield,in CC#N,0.05
COCCC1=Cc2nc1ccc1[nH]c(cc1CCOC)c1nc(c(OC(C)=O)cc3[nH]c2cc3CCOC)C(CCOC)=C1,photoluminescence quantum yield,in Cc1ccccc1,0.27
CCCCCCCCCCCCCCCCOc1cc(C#Cc2ccc3ccccc3c2-c2c(C#Cc3cc(OCCCCCCCCCCCCCCCC)c(C#Cc4ccc(C=C(C#N)C#N)cc4)cc3OCCCCCCCCCCCCCCCC)ccc3ccccc23)c(OCCCCCCCCCCCCCCCC)cc1C#Cc1ccc(C=C(C#N)C#N)cc1,photoluminescence quantum yield,in Brc1ccccc1,0.63
same,photoluminescence quantum yield,in C1CCCCC1,0.99
same,photoluminescence quantum yield,in C1CCOC1,0.3
same,photoluminescence quantum yield,in C1COCCO1,0.94
same,photoluminescence quantum yield,in CCCCCC,0.98
same,photoluminescence quantum yield,in CCCCCCCCO,0.52
same,photoluminescence quantum yield,in CCCCOCCCC,0.97
same,photoluminescence quantum yield,in CCOC(C)=O,0.37
same,photoluminescence quantum yield,in CCOCC,0.87
same,photoluminescence quantum yield,in Cc1ccccc1,0.95
same,photoluminescence quantum yield,in ClC(Cl)(Cl)Cl,0.95
same,photoluminescence quantum yield,in ClC(Cl)Cl,0.81
same,photoluminescence quantum yield,in ClCCl,0.23
COc1ccc2c(C=C(C#N)C#N)cc3ccc4cc(C=C(C#N)C#N)c5ccc(OC)cc5c4c3c2c1,photoluminescence quantum yield,in ClC(Cl)Cl,0.23
COc1c(-c2ccc(N(C)C)cc2)oc2ccccc2c1=O,photoluminescence quantum yield,in C1CCCCC1,0.048
same,photoluminescence quantum yield,in C1CCOC1,0.88
same,photoluminescence quantum yield,in CC#N,0.69
same,photoluminescence quantum yield,in CO,0.021
CCCCCCN(CCCCCC)c1ccc(C#Cc2ccc(N(CCCCCC)CCCCCC)cc2)cc1,photoluminescence quantum yield,in CO,0.0001
COc1ccc(N(c2ccc(/C=C(\C)c3ccccc3)cc2)c2ccc(/C=C(\C)c3ccccc3)cc2)cc1,photoluminescence quantum yield,in Cc1ccccc1,0.48
CCCCN(CCCC)c1ccc(/C=C/c2ccc3c(c2)CCc2cc(/C=C/c4ccc(N(CCCC)CCCC)cc4)ccc2-3)cc1,photoluminescence quantum yield,in CS(C)=O,0.87
same,photoluminescence quantum yield,in Cc1ccccc1,0.71
CC1=N/C(=C\c2ccccc2N)C(=O)N1C,photoluminescence quantum yield,in C1CCCCC1,0.002
same,photoluminescence quantum yield,in C1CCOC1,0.009
same,photoluminescence quantum yield,in CC#N,0.004
same,photoluminescence quantum yield,in CO,0.002
same,photoluminescence quantum yield,in CS(C)=O,0.007
same,photoluminescence quantum yield,in ClCCl,0.004
same,photoluminescence quantum yield,in O,0.001
